In publication PMC6423129, “Activity and structural analysis of GRL-117C: a novel small molecule CCR5 inhibitor active against R5-tropic HIV-1s” (Scientific Reports, 2019):
Where two headings read alike, the source gives them in different places.

Legend:
[1] = system: R5-HIV-1BaL; test: p24 assay using PBMCs and R5-HIV-1BaL; format: cell-based; details: Ba-L (PBMCs), day 7
Description: (§1) MAGI-CCR5 cells[18] were maintained in DMEM supplemented with 10% fetal calf serum (FCS: Gemini Bio-Products, West Sacramento, CA), 200 μg/ml G418, 100 μg/ml hygromycin B, and 100 μg/ml zeomycin. The Chinese hamster ovary (CHO) cells expressing CCR5[19] were maintained in Ham’s F-12 medium (GIBCO-BRL, Rockville, MD) supplemented with 10% FCS, 50 U/ml penicillin, and 50 μg/ml streptomycin in the presence of 5 μg/ml blasticidin S hydrochloride. TZM-bl cells were obtained from the NIH AIDS Reagent Program, and were cultured in DMEM with 10% FCS. Peripheral blood mononuclear cells (PBMCs) were isolated from buffy coats of HIV-1 seronegative individuals, and were activated with 10 μg/ml phytohemagglutinin (PHA) prior to use[16]. A laboratory wild-type R5-HIV-1 strain (HIV-1Ba-L)[37] was employed for drug susceptibility assays. AD101 (experimental CCR5 inhibitor) and VVC-resistant HIV clones[7],[8] were provided by Dr. John P. Moore of Cornell University for this study. The clones were propagated with activated PBMCs, and were used for the assays. A clinical HIV-1 strain, HIV-1KP-5pc, and an MVC-resistant isolate, HIV-1KP-5mvcR, were prepared and used for antiviral assays, as previously described[10],[38]. The following reagents (plasmids) for T/F HIV-1 viruses[22],[24] were obtained through the NIH AIDS Reagent Program, Division of AIDS, NIAID, NIH: pCH040.c/2625 (cat# 11740), pCH106.c/2633 (cat# 11743), pTHRO.c/2626 (cat# 11745), and pCH058.c/2960 (cat# 11856), from Dr. John Kappes and Dr. Christina Ochsenbauer.
(§2) Antiviral assays using PHA-PBMCs (p24 assay) were conducted as previously reported[16],[38]. In brief, PHA-PBMCs (1 × 10^6/ml) were exposed to 50 TCID50 of HIV-1Ba-L or drug-resistant HIV-1 infectious clones in the presence or absence of various concentrations of drugs; 10-fold serial dilutions were performed in 96-well microculture plates. The amount of p24 antigens produced by the cells was determined on day 7 in the culture via a commercially available ELISA kit (PerkinElmer). The p24 production level in drug-free control cell cultures was used as the reference. […] Antiviral assays using MAGI-CCR5 cells (MAGI assay) were conducted as previously reported[16],[39]. Single-round virus infection assays using TZM-bl cells infected with R5-HIV-1s (HIV-1YU2, HIV-1KP-5pc, and HIV-1KP-5mvcR)[10] were also conducted as previously described.

[2] = system: D1/85.16 cl.23 (VVC resistant); test: microbe, parasite or virus in culture; format: cell-based, HIV-1
Description: as §1, §2

[3] = system: CC101.19 cl.7 (AD101 resistant); test: microbe, parasite or virus in culture; format: cell-based, HIV-1
Description: as §1, §2

[4] = system: CC1/85 cl.6; test: Anti-HIV-1 assay, drug-naive clinical strain CC1/85 cl.6; format: cell-based
Description: as §1, §2

[5] = system: CC1/85 cl.7; test: Anti-HIV-1 assay, drug-naive clinical strain CC1/85 cl.7; format: cell-based
Description: as §1, §2

[6] = system: R5-HIV-1Ba-L; test: MAGI assay using MAGI/CCR5 cells and R5-HIV-1Ba-L; format: cell-based; details: Ba-L (MAGI)
Description: as §1, §2

[7] = system: HIV-1KP-5mvcR; test: TZM-bl single-round infection assay, MVC-resistant HIV-1KP-5mvcR; format: cell-based; details: in words; data not shown
Description: as §1, §2

[8] = system: pCH0.6.c/2633; test: MAGI assay, T/F HIV-1 clone pCH0.6.c/2633; format: cell-based; details: Human immunodeficiency virus 1, MAGI
Source text: (§3) We also examined the activity of GRL-compounds against Transmitter/founder (T/F) HIV-1 viruses. T/F viruses are involved in the initial infection. It is considered that T/F viruses virtually always use CCR5 rather than CXCR4 and infect T cells but not macrophages because […] of CD4 is needed to mediate virus entry for the initial transmission[20]–[24]. […] We obtained four HIV-1 T/F infectious clones. We determined the antiviral activity of GRL-117C, GRL-10007C and GRL-10018C on these HIV-1 clones using MAGI assay.
as §1, with “A clinical HIV-1 strain, HIV-1KP-5pc, and an MVC-resistant isolate, HIV-1KP-5mvcR, were prepared and used for antiviral assays, as previously described[10],[38].” left out
as §2

[9] = system: pTHRO.c/2626; test: MAGI assay, T/F HIV-1 clone pTHRO.c/2626; format: cell-based; details: Human immunodeficiency virus 1, MAGI
Source text: as §3
as §1, with “A clinical HIV-1 strain, HIV-1KP-5pc, and an MVC-resistant isolate, HIV-1KP-5mvcR, were prepared and used for antiviral assays, as previously described[10],[38].” left out
as §2

[10] = system: pCH058.c/2960; test: MAGI assay, T/F HIV-1 clone pCH058.c/2960; format: cell-based; details: Human immunodeficiency virus 1, MAGI
Source text: as §3
as §1, with “A clinical HIV-1 strain, HIV-1KP-5pc, and an MVC-resistant isolate, HIV-1KP-5mvcR, were prepared and used for antiviral assays, as previously described[10],[38].” left out
as §2

[11] = system: pCH040.c/2625; test: MAGI assay, T/F HIV-1 clone pCH040.c/2625; format: cell-based; details: Human immunodeficiency virus 1, MAGI
Source text: as §3
as §1, with “A clinical HIV-1 strain, HIV-1KP-5pc, and an MVC-resistant isolate, HIV-1KP-5mvcR, were prepared and used for antiviral assays, as previously described[10],[38].” left out
as §2

[12] = biological target: T1, CCR5 (Homo sapiens, UniProt P51681); test: Inhibition of 125I-MIP-1β binding to CCR5 (CCR5+ CHO cells)
T1 construct: expressed in transfected cells; host or cells: Chinese hamster ovary (CHO) cells expressing CCR5
T1 sequence (P51681 whole entry): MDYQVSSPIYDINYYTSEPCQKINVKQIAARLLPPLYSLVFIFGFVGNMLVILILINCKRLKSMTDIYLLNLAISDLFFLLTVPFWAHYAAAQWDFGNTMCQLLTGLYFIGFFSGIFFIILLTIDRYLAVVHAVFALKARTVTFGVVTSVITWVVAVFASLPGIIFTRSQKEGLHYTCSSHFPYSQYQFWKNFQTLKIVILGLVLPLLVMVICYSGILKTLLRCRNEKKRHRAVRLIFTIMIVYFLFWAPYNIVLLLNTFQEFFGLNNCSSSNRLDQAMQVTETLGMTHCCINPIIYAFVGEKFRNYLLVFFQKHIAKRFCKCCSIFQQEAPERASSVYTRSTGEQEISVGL
Description: (§4) In order to determine whether GRL derivatives block the binding of CC-chemokines to CCR5, we conducted a CC-chemokine binding inhibition assay using ^125I-labeled CC-chemokines (^125I-RANTES, ^125I-MIP-1α, and ^125I-MIP-1β) and CCR5 expressing cells.
(§5) CCR5^+ CHO cells were incubated with (A) ^125I-MIP-1α, (B) ^125I-MIP-1β, and (C) ^125I-RANTES (200 ng/ml) in the presence or absence of varying concentrations of CCR5 inhibitors. Data are shown as means ± s.d. of three independent experiments.
(§6) The inhibition of the binding of ^125I-labeled CC-chemokines ([^125I] RANTES, [^125I] MIP-1α, or [^125I] MIP-1β) to CCR5 by various CCR5 inhibitors was measured as previously described. Calcium flux inhibition assays were also performed with CCR5 inhibitors, and were carried out with the Fluo-4 Direct^TM calcium reagent (Invitrogen); assays were conducted as previously described with minor modifications. In brief, CHO-CCR5 cells (5 × 10^5 cells) were exposed to Fluo-4 Direct^TM calcium reagent for 60 min at 37 °C in RPMI containing 5% FCS. Cells were then incubated with the test compound for 30 min at varying concentrations. Subsequently, cells were exposed to either MIP-1α, MIP-1β, or RANTES at 200 ng/ml. Relative increases in cytosolic Ca^2+ levels after chemokine exposure were determined with flow cytometry (FACSCalibur, BD Biosciences), and IC50 values of cytosolic Ca^2+ mobilization (Ca^2+ flux) were compared with the Ca^2+ flux level in drug-free control samples.

[13] = biological target: T1, CCR5; test: Inhibition of 125I-MIP-1α binding to CCR5 (CCR5+ CHO cells)
Description: as §4, §5, §6

[14] = biological target: T1, CCR5; test: Inhibition of 125I-RANTES binding to CCR5 (CCR5+ CHO cells)
Description: as §4, §5, §6

[15] = Human immunodeficiency virus 1, BAL, PBMC, 168 h
[16] = Human immunodeficiency virus 1, D1/85.16 cl.23 (VVC resistant)
[17] = Human immunodeficiency virus 1, CC101.19 cl.7 (AD101 resistant)
[18] = Human immunodeficiency virus 1, BAL

Cc1ccc(-c2ccc3c(c2)C=C(C(=O)Nc2ccc(C[N+](C)(C)C4CCOCC4)cc2)CCC3)cc1.[Cl-] [TAK-779]
IC50 [1]: 31.6 nM | IC90 [1]: 187 nM | fold increases of IC50s compared to wild type (CC1/85 cl.7) ([2]; D1/85.16 cl.23 (VVC resistant) vs CC1/85 cl.7): (×5.9) fold | IC50 ([2]; D1/85.16 cl.23 (VVC resistant), read-out: IC50): 166 nM | IC90 ([2]; D1/85.16 cl.23 (VVC resistant), read-out: IC90): 747 nM | fold increases of IC50s compared to wild type (CC1/85 cl.7) ([3]; CC101.19 cl.7 (AD101 resistant) vs CC1/85 cl.7): (×14) fold | IC50 ([3]; CC101.19 cl.7 (AD101 resistant), read-out: IC50): 400 nM | IC90 ([3]; CC101.19 cl.7 (AD101 resistant), read-out: IC90): > 1000 nM | IC50 ([4]; CC1/85 cl.6, drug naive R5-HIV-1 clinical strain, read-out: IC50): 22.7 nM | IC50 ([5]; CC1/85 cl.7, drug naive R5-HIV-1 clinical strain, read-out: IC50): 28.3 nM | IC90 ([5]; CC1/85 cl.7, drug naive R5-HIV-1 clinical strain, read-out: IC90): 101 nM | IC50 [6]: 15.7 nM | IC90 [6]: 88.1 nM

CCO/N=C(\c1ccc(Br)cc1)C1CCN(C2(C)CCN(C(=O)c3c(C)cc[n+]([O-])c3C)CC2)CC1 [SCH-C]
IC50 [1, 15]: 13.9 nM | IC90 [1, 15]: 97.2 nM | IC90 ([2]; Human immunodeficiency virus 1): > 1000 nM | IC50 [2, 16]: 412 nM | IC90 ([3]; Human immunodeficiency virus 1): > 1000 nM | IC50 [3, 17]: > 1000 nM | IC50 ([4]; Human immunodeficiency virus 1, CC1/85 cl.6, drug naive R5-HIV-1 clinical strain, read-out: IC50): 5.2 nM | IC50 ([5]; Human immunodeficiency virus 1): 6.1 nM | IC90 ([5]; Human immunodeficiency virus 1): 67.7 nM | IC50 [6, 18]: 4.8 nM | IC90 [6, 18]: 15.9 nM

Cc1cccc(C)c1C(=O)N1C2CCC1CC(N1CCN(C(C)c3ccc(C(F)(F)F)cc3)C(C)C1)C2 (centres unmarked) [GRL-10007C]
activity against MVC-resistant HIV-1 (HIV-1KP-5mvcR) [7]: failed to demonstrate activity | IC50 [8]: 5.3 ± 3.4 nM | IC50 [9]: 3.2 ± 0.4 nM | IC50 [1, 15]: 16.9 nM | IC90 [1, 15]: 126 nM | IC50 [10]: 6.1 ± 3.2 nM | IC50 [11]: 3.1 ± 0.3 nM | EC50 [12]: 2.5 nM | IC90 ([2]; Human immunodeficiency virus 1): 536 nM | IC50 [2, 16]: 56.9 nM | IC90 ([3]; Human immunodeficiency virus 1): 472 nM | IC50 [3, 17]: 41.1 nM | EC50 [13]: 1.1 nM | EC50 [14]: 628 nM | binding of 125I-RANTES remaining ([14]; in the presence of 1 μM compound): more than 40% | IC50 ([4]; Human immunodeficiency virus 1): 12.5 nM | IC50 ([5]; Human immunodeficiency virus 1): 15.8 nM | IC90 ([5]; Human immunodeficiency virus 1): 80.3 nM | IC50 [6, 18]: 1.4 nM | IC90 [6, 18]: 9.5 nM
